For data set [1], the system named is HL60 (promyeocytic leukaemia). Kind of data set: MTS assay, inhibition of cell proliferation, HL60. In general terms: Tetrazolium assays rely on reduction of a dye to a coloured formazan, in cell work by metabolically active cells.
Protocol: (§1) The human cell lines HL60 (promyeocytic leukaemia), MDA435 (breast ductal carcinoma; ATCC reference HBT129) and MDA231 (breast adenocarcinoma; ATCC reference HBT26) were obtained from ATCC. […] SK-OV3 cells (or OV3, ATCC reference HTB77) were kindly provided by NCI (Frederick, Md.).
(§2) The cell lines HCT116, HCT15, MCF7, MDA435, MDA231, PC3, OV3, HL60R and HL60 were grown in RPMI medium, in particular supplemented with 10% fetal calf serum, in the presence of penicillin, streptomycin and fungizone in 75 cm^2 flask under 5% CO2. […] The medium was changed every 2-3 days.
(§3) Cells were plated in 96-well tissue culture plates in 200 μl medium and cultured during 24 h before to be treated with compounds dissolved in DMSO (compound concentrations at a range of 0.5 nM to 10 μM) using a Biomek 2000 or 3000 (Beckman). Controls received the same volume of DMSO (1% final volume). After a 72 h exposure, MTS reagent (Promega) was added and incubated for 3 h at 37° C. The absorbance was then monitored at 490 nm and results were expressed as the value [1-(OD490 treated/OD490 control)×100] corresponding to the percentage of inhibition of cell proliferation.
For data set [2], the system named is HL60R (resistant HL60 cells). Kind of data set: MTS assay, cytotoxicity, HL60R. The note with it: Homo sapiens, read-out: Cytotoxicity (IC50).
Protocol: (§4) The cell lines HCT116, HCT15, MCF7, MDA435, MDA231, PC3, OV3, HL60R and HL60 were grown in RPMI medium, in particular supplemented with 10% fetal calf serum, in the presence of penicillin, streptomycin and fungizone in 75 cm^2 flask under 5% CO2.
as §3
Data set [3] concerns KB (epidermoid carcinoma). The data set is described as follows: MTS assay, inhibition of cell proliferation, KB. The note with it: Homo sapiens, read-out: Cytotoxicity (IC50).
Protocol: The human cell lines KB (epidermoid carcinoma) and HepG2 (hepatocarcinoma) were obtained from ECACC (Salisbury, UK) and grown in D-MEM medium supplemented with 10% fetal calf serum, in the presence of penicilline, streptomycine and fungizone in 75 cm^2 flask under 5% CO2.
as §3
The test system of data set [4] is MDA435 (breast ductal carcinoma). Kind of data set: MTS assay, cytotoxicity, MDA435. The note with it: Homo sapiens, MDA435, read-out: Cytotoxicity (IC50).
Protocol: as §1, §2, §3
The subject of data set [5] is PC3 (prostate adenocarcinoma). Kind of data set: MTS assay, cytotoxicity, PC3. The note with it: Homo sapiens, read-out: Cytotoxicity (IC50).
Protocol: (§5) The human cell lines HCT116 (colon adenocarcinoma), PC3 (prostate adenocarcinoma) and HCT15 (colon adenocarcinoma) were obtained from ECACC (Wiltshire, UK).
as §4, §3
A further data set relates to SK-OV3 cells (OV3). Kind of data set: MTS assay, cytotoxicity, OV3. The note with it: Homo sapiens, SK-OV-3, read-out: Cytotoxicity (IC50).
In data set [6] the test system is HCT116 (colon adenocarcinoma). Kind of data set: MTS assay, inhibition of cell proliferation, HCT116. The note with it: Homo sapiens, HCT-116, read-out: Cytotoxicity (IC50).
Protocol: as §5, §4, §3
Data set [7] concerns MDA231 (breast adenocarcinoma). The data set is described as follows: MTS assay, cytotoxicity, MDA231. The settings on record: Homo sapiens, MDA-MB-231, read-out: Cytotoxicity (IC50).
Protocol: as §1, §2, §3
The next data set has as its system H9c2 cardiomyocytes. The settings on record: 10 or 100 nM; apoptosis induced by doxorubicin in H9c2 cells. As to the method:
The medium was changed every 2-3 days.
H9c2 cells were plated for 24 h in 100 mm Petri dishes at 0,7×10^4 cells/cm^2. Next, the cells were washed and cultured for 12 h in glucose-free medium (Gibco, DMEM w-L-glutamine, w/o D-glucose, sodium pyruvate) supplemented with only 1% fetal calf serum. […] Cells were washed, and subsequently FACS analyses were performed.
Apoptosis was analysed by fluorescence-activated cell sorting analysis (FACS-Calibur, Becton-Dickinson Biosciences). 0,5×10^6 cells were harvested, washed with Annexin Binding Buffer (0,01 M HEPES, 0,14 M NaCl, 2,5 mM CaCl2) and labeled with annexin V (dilution 1:50) and propidium iodide (6,7 μg/ml). All assays were performed at least in triplicate, and the results were analyzed by BD Cell Quest Pro software (Becton-Dickinson Biosciences, Le Pont De Claix, France).

Where [8] appears, read: Homo sapiens, HL-60, read-out: Cytotoxicity (IC50).
Setting [9] is: read-out: Cytotoxicity (IC50), HL60, MTS, Table 2.

These results are taken from US20120101153A1, “ROCAGLAOL DERIVATIVES AS CARDIOPROTECTANT AGENTS AND AS ANTINEOPLASTIC AGENTS” (Universite De Strasbourg, priority 2008, published 2012).

Like-named read-outs stand apart in the source and are kept apart here.

Protocol for SK-OV3 cells (OV3): as §1, §2, §3

Take `COC(=O)[C@H]1[C@@H](O)[C@@]2(O)c3ccc(OC)cc3O[C@@]2(c2ccc(Br)cc2)[C@@H]1c1ccccc1` (racemic) [FL5, Methyl 3a-(4-bromophenyl)-1,8b-dihydroxy-8-methoxy-1-oxo-3-phenyl-2,3-3a,8b-tetrahydro-cyclopenta[b]benzofuran-2-carboxylate]: the half-maximal inhibitory concentration (IC50) (commonly the concentration that inhibits the measured activity by half) came out at 65 nM in [1] (setting [8]); 44 nM in [2]; 165 nM in [3]; 65 nM in [4]; 174 nM in [5]; 101 nM with SK-OV3 cells (OV3). Also, the IC50 in data set [6] came to 96 nM; in data set [7] it was 27 nM.

For `COc1ccc2c(c1)O[C@@]1(c3ccc(Br)cc3)[C@H](c3ccccc3)C[C@@H](O)[C@@]21O` (racemic) [FL6, 3a-(4-Bromophenyl)-8-methoxy-3-phenyl-1,2,3,3a-tetrahydro-cyclopenta[b]benzofuran-1,8b(1H)-diol], the IC50 in data set [1] (setting [8]) amounted to 115 nM; in [2], 67 nM; in data set [3], 255 nM; in data set [4] it was 205 nM; in data set [5] it was 224 nM; in the data set on SK-OV3 cells (OV3) it was 251 nM. For the same compound, the figures for the IC50 in data set [6] and in data set [7] were 108 nM and 48 nM, respectively. Moreover, in the data set with H9c2 cardiomyocytes, the “Activity for cytotoxicity and cardioprotection (FIG. 13)” value is listed as “no or weak such activity”.

`COC(=O)[C@H]1[C@@H](O)[C@@]2(O)c3c(OC)cc(OC)cc3O[C@@]2(c2ccc(Br)cc2)[C@@H]1c1ccccc1` (racemic) [FL10, Methyl 3a-(4-bromophenyl)-1,8b-dihydroxy-6,8-dmethoxy-1-oxo-3-phenyl-2,3-3a,8b-tetrahydro-cyclopenta[b]benzofuran-2-Carboxylate]: the concentration for half-maximal inhibition (IC50) was determined as 14 nM in data set [1] (setting [8]); 14 nM in data set [2]; 24 nM in data set [3]; 15 nM in [4]; 29 nM in data set [5]; 21 nM in the data set on SK-OV3 cells (OV3). Further, the half-inhibitory concentration (IC50) in data set [6] was 18 nM; in [7], 8.7 nM.

For the compound `COc1cc(OC)c2c(c1)O[C@@]1(c3ccc(Br)cc3)[C@H](c3ccccc3)[C@@H](C(=O)N(C)C)[C@@H](O)[C@@]21O` (racemic) [FL12, 3a-(4-Bromophenyl)-1,8b-dihydroxy-6,8-dimethoxy-N,N-dimethyl-1-oxo-3-phenyl-2,3-3a,8b-tetrahydro-cyclopenta[b]benzofuran-2-carboxamide], the 50% inhibitory concentration (IC50) is 4 nM in data set [1] (setting [8]); 12 nM in data set [2]; 7 nM in [3]; 3.2 nM in data set [4]; 7.2 nM in data set [5]; 6.7 nM in the data set on SK-OV3 cells (OV3). Moreover, the IC50 in data set [6] came to 5.9 nM; in data set [7] it was 2.7 nM.

`CNC(=O)[C@H]1[C@@H](O)[C@@]2(O)c3c(OC)cc(OC)cc3O[C@@]2(c2ccc(Br)cc2)[C@@H]1c1ccccc1` (racemic) [FL13, 3a-(4-Bromophenyl)-1,8b-dihydroxy-6,8-dimethoxy-N-methyl-1-oxo-3-phenyl-2,3-3a,8b-tetrahydro-cyclopenta[b]benzofuran-2-carboxamide]: the 50% inhibitory concentration (IC50) in data set [1] (setting [8]) stood at 2 nM; in [2], 16 nM; in data set [3], 4 nM; in data set [4], 2.6 nM; in data set [5] it was 3.3 nM; in the data set on SK-OV3 cells (OV3), 3.8 nM. Moreover, the concentration for half-maximal inhibition (IC50) in [6] turned out to be 3.8 nM; in [7] it was 1.9 nM.

For `COc1cc(OC)c2c(c1)O[C@@]1(c3ccc(Br)cc3)[C@H](c3ccccc3)[C@@H](C(N)=O)[C@@H](O)[C@@]21O` (racemic) [FL14, 3a-(4-Bromophenyl)-1,8b-dihydroxy-6,8-dimethoxy-1-oxo-3-phenyl-2,3-3a,8b-tetrahydro-cyclopenta[b]benzofuran-2-carboxamide], the IC50 in [1] (setting [8]) came to 1 nM; in data set [2], 18 nM; in [3], 2 nM; in data set [4], 1.5 nM; in [5], 3.7 nM; with SK-OV3 cells (OV3), 2.1 nM. Moreover, the IC50 in [6] was 1.8 nM; in data set [7], 1 nM.

In the case of `COc1ccc([C@@]23Oc4cc(OC)cc(OC)c4[C@]2(O)[C@H](O)C[C@H]3c2cccc(F)c2)cc1` (racemic) [FL15, 3a-(4-methoxyphenyl)-6,8-dimethoxy-3-(3-fluorophenyl)-1,2,3,3a-tetrahydro-cyclopenta[b]benzofuran-1,8b(1H)-diol], in data set [3], the IC50 came out at 60 nM.

`COC(=O)[C@H]1[C@@H](O)[C@@]2(O)c3c(OC)cc(OC)cc3O[C@@]2(c2ccc(OC)cc2)[C@@H]1c1cccc(F)c1` (racemic) [FL16, Methyl 3a-(4-methoxyphenyl)-1,8b-dihydroxy-6,8-dimethoxy-1-oxo-3-(3-fluorophenyl)-2,3-3a,8b-tetrahydro-cyclopenta[b]benzofuran-2-carboxylate]: the half-inhibitory concentration (IC50) in data set [3] was 28 nM.

Regarding `COc1cc(OC)c2c(c1)O[C@@]1(c3ccc(Br)cc3)[C@H](c3cccc(F)c3)[C@@H](C(N)=O)[C@@H](O)[C@@]21O` (racemic) [FL18, 3a-(4-Bromophenyl)-1,8b-dihydroxy-6,8-dimethoxy-1-oxo-3-(3-fluorophenyl)-2,3-3a,8b-tetrahydro-cyclopenta[b]benzofuran-2-carboxamide], the 50% inhibitory concentration (IC50) in data set [3] came out at 14 nM.

In the case of `COc1cc(OC)c2c(c1)O[C@@]1(c3ccc(Br)cc3)[C@H](c3ccccc3)C[C@@H](OC=O)[C@@]21O` (racemic) [FL19, 3a-(4-Bromophenyl)-6,8-dimethoxy-3-phenyl-1,2,3,3a-tetrahydro-cyclopenta[b]benzofuran-1,8b(1H)-diol 1-formate], in [1] (setting [8]), the half-inhibitory concentration (IC50) came to 7 nM.

For `COc1cc(OC)c2c(c1)O[C@@]1(c3ccc(Br)cc3)[C@H](c3ccccc3)C[C@@H](OC(C)=O)[C@@]21O` (racemic) [FL20, 3a-(4-Bromophenyl)-6,8-dimethoxy-3-phenyl-1,2,3,3a-tetrahydro-cyclopenta[b]benzofuran-1,8b(1H)-diol 1-acetate], the IC50 in [1] (setting [8]) stood at 40 nM.

Consider `CCC(=O)O[C@@H]1C[C@@H](c2ccccc2)[C@]2(c3ccc(Br)cc3)Oc3cc(OC)cc(OC)c3[C@]12O` (racemic) [FL21, 3a-(4-Bromophenyl)-6,8-dimethoxy-3-phenyl-1,2,3,3a-tetrahydro-cyclopenta[b]benzofuran-1,8b(1H)-diol 1-propionate], for which the IC50 in data set [1] (setting [8]) is 50 nM.

Take `COc1cc(OC)c2c(c1)OC1(c3ccc(Br)cc3)C(c3ccccc3)CC(NC=O)C21O` (stereo not drawn) [FL22, 3a-(4-Bromophenyl)-6,8-dimethoxy-8b-hydroxy-3-phenyl-1,2,3,3a-tetrahydro-cyclopenta[b]benzofuran-1,8b(1H)-formamide]: the IC50 in data set [1] (setting [9]) turned out to be 44 nM.

As for `COc1cc(OC)c2c(c1)OC1(c3ccc(Br)cc3)C(c3ccccc3)CC(NC=O)C21O` (stereo not drawn) [FL23, 3a-(4-Bromophenyl)-6,8-dimethoxy-8b-hydroxy-3-phenyl-1,2,3,3a-tetrahydro-cyclopenta[b]benzofuran-1,8b(1H)-formamide], the IC50 in [1] (setting [9]) was 2 nM.

Turning to `COc1cc(OC)c2c(c1)OC1(c3ccc(Br)cc3)C(c3ccccc3)CC(NS(C)(=O)=O)C21O` (stereo not drawn) [FL24, 3a-(4-Bromophenyl)-6,8-dimethoxy-8b-hydroxy-3-phenyl-1,2,3,3a-tetrahydro-cyclopenta[b]benzofuran-1,8b(1H)-methanesulfonamide], the half-maximal inhibitory concentration (IC50) in data set [1] (setting [9]) came out at 580 nM.

Consider `COc1cc(OC)c2c(c1)OC1(c3ccc(Br)cc3)C(c3ccccc3)CC(NS(C)(=O)=O)C21O` (stereo not drawn) [FL25, 3a-(4-Bromophenyl)-6,8-dimethoxy-8b-hydroxy-3-phenyl-1,2,3,3a-tetrahydro-cyclopenta[b]benzofuran-1,8b(1H)-methanesulfonamide], for which the IC50 in data set [1] (setting [9]) came out at 16 nM.

Consider `CC(=O)O[C@@]12CO[C@@H]1C[C@H](O)[C@@]1(C)C(=O)[C@H](O)C3=C(C)[C@@H](OC(=O)[C@H](O)[C@@H](NC(=O)OC(C)(C)C)c4ccccc4)C[C@@](O)([C@@H](OC(=O)c4ccccc4)[C@H]21)C3(C)C` [Taxotere, reference compound], for which the IC50 worked out at 0.5 nM in [1] (setting [8]); 531 nM in data set [2]; 0.17 nM in data set [3]; 0.25 nM in data set [4]; 1.4 nM in data set [5]; 0.51 nM in the data set on SK-OV3 cells (OV3). Moreover, the half-maximal inhibitory concentration (IC50) in data set [6] worked out at 0.52 nM; in data set [7], 0.018 nM.

Regarding `CC[C@]1(O)C[C@@H]2CN(CCc3c([nH]c4ccccc34)[C@@](C(=O)OC)(c3cc4c(cc3OC)N(C)[C@H]3[C@@](O)(C(=O)OC)[C@H](OC(C)=O)[C@]5(CC)C=CCN6CC[C@]43[C@@H]65)C2)C1` [Vinblastin, vinblastine, reference compound], the half-inhibitory concentration (IC50) is 1.11 nM in [1] (setting [8]); above 100 nM in [2]; 0.8 nM in [3]; 1.24 nM in data set [4]; 5.5 nM in data set [5]; 2.7 nM in the data set with SK-OV3 cells (OV3). Also, the half-inhibitory concentration (IC50) in data set [6] came to 1.42 nM; in data set [7], 0.63 nM.
